Experimental data taken from ChEMBL document CHEMBL1667805, “Synthesis of new C5-(1-substituted-1,2,3-triazol-4 or 5-yl)-2'-deoxyuridines and their antiviral evaluation” (Eur J Med Chem, 2011).
Active and inactive are the calls of the source. No cut-off for these calls is given here.

What was measured:
[1] = test system: CCRF-CEM; experiment: cells; settings: Homo sapiens, 72 h
[2] = test system: Human alphaherpesvirus 1; experiment: microbe, parasite or virus in culture; settings: Human alphaherpesvirus 1, KOS, HEL
[3] = test system: L1210; experiment: cells; settings: Mus musculus, L1210, 48 h
[4] = in vitro; settings: human, HEL cells
[5] = test system: Human alphaherpesvirus 2; experiment: microbe, parasite or virus in culture; settings: Human alphaherpesvirus 2, strain G, HEL
[6] = test system: Vaccinia virus; experiment: microbe, parasite or virus in culture; settings: Orthopoxvirus vaccinia, HEL
[7] = test system: Human alphaherpesvirus 1; experiment: microbe, parasite or virus in culture; settings: Human alphaherpesvirus 1, KOS, HEL; remark: listed apart in the source
[8] = test system: HeLa; experiment: cells; settings: Homo sapiens, 96 h
[9] = test system: Human betaherpesvirus 5; experiment: microbe, parasite or virus in culture; settings: Human betaherpesvirus 5, Davis, HEL
[10] = test system: Influenza B virus; assay type: functional, organism-based; settings: MDCK
[11] = test system: Human alphaherpesvirus 3; experiment: microbe, parasite or virus in culture; settings: Human alphaherpesvirus 3, 07-1, HEL
[12] = test system: Human immunodeficiency virus 2; experiment: Antiviral activity against HIV2 ROD infected in human […] cells assessed as virus-induced CEM giant cell formation after 4 days; assay type: functional, organism-based; settings: ISOLATE ROD
[13] = test system: Human respirovirus 3; assay type: functional, organism-based; settings: Vero
[14] = test system: Influenza A virus; assay type: functional, organism-based; settings: H1N1, MDCK
[15] = test system: Coxsackievirus B4; assay type: functional, organism-based; settings: HeLa
[16] = test system: Influenza A virus; assay type: functional, organism-based; settings: H3N2, MDCK
[17] = test system: Human immunodeficiency virus 1; experiment: Antiviral activity against HIV1 3B infected in human […] cells assessed as virus-induced CEM giant cell formation after 4 days; assay type: functional, organism-based
[18] = test system: Vesicular stomatitis virus; assay type: functional, organism-based; settings: HeLa
[19] = test system: Punta Toro virus; assay type: functional, organism-based; settings: Vero
[20] = test system: Human alphaherpesvirus 3; experiment: microbe, parasite or virus in culture; settings: Human alphaherpesvirus 3, strain Oka vaccine, HEL
[21] = test system: Vesicular stomatitis virus; assay type: functional, organism-based; settings: MDCK
[22] = test system: Sindbis virus; assay type: functional, organism-based; settings: Vero
[23] = test system: Human betaherpesvirus 5; experiment: microbe, parasite or virus in culture; settings: Human betaherpesvirus 5, AD169, HEL
[24] = test system: Mammalian orthoreovirus 1; assay type: functional, organism-based; settings: Vero

SMILES	IC50 [1] [µM]	EC50 [2] [µM]	IC50 [3] [µM]	MCC at 72 h [4] [µM]	EC50 [5] [µM]	EC50 [6] [µM]	EC50 [7] [µM]	IC50 [8] [µM]	EC50 [9] [µM]	CC50 at 72 h [4] [µM]	inhibition [10]	EC50 [11] [µM]	inhibition [12]	inhibition [13]	inhibition [14]	inhibition [15]	inhibition [16]	inhibition [17]	inhibition [18]	EC50 [23] [µM]	other results
O=c1[nH]c(=O)n([C@H]2C[C@H](O)[C@@H](CO)O2)cc1-c1cnnn1-c1ccc(Oc2ccccc2)cc1	107	> 100	134	> 100	> 100	> 100	> 100	42	–	–	–	–	–	–	–	–	–	–	–	–	–
Nc1ccn(C[C@@H](CO)OCP(=O)(O)O)c(=O)n1 [CIDOFOVIR]	–	0.8	–	> 250	1.4	–	0.8	–	0.4	> 250	–	–	–	–	–	–	–	–	–	–	–
Nc1nc2c(ncn2COC(CO)CO)c(=O)[nH]1 [GANCICLOVIR]	–	–	–	> 250	0.04	> 100	0.1	–	–	> 250	–	–	–	–	–	–	–	–	–	–	–
O=c1[nH]c(=O)n([C@H]2C[C@H](O)[C@@H](CO)O2)cc1-c1cn(-c2ccc(Cl)cc2)nn1	13	> 240	14.8	> 240	> 240	> 240	> 240	4	> 131	7.4	inactive	48	inactive	inactive	inactive	inactive	inactive	inactive	inactive	> 240	inhibition [19]: inactive; EC50 [20]: 41 µM; inhibition [21]: inactive; inhibition [22]: inactive; inhibition [24]: inactive
O=c1[nH]c(=O)n([C@H]2C[C@H](O)[C@@H](CO)O2)cc1-c1cn(-c2ccc([N+](=O)[O-])cc2)nn1	> 100	> 50	> 100	240	> 50	> 50	> 50	> 100	> 50	136	inactive	> 50	inactive	inactive	inactive	inactive	inactive	inactive	inactive	> 50	inhibition [19]: inactive; EC50 [20]: > 50 µM; inhibition [21]: inactive; inhibition [22]: inactive; inhibition [24]: inactive
O=c1[nH]c(=O)n([C@H]2C[C@H](O)[C@@H](CO)O2)cc1-c1cn(-c2ccc(OC(F)(F)F)cc2)nn1	35	> 50	50	> 220	> 50	> 50	> 50	37	> 220	47	inactive	> 50	inactive	inactive	inactive	inactive	inactive	inactive	inactive	> 220	inhibition [19]: inactive; EC50 [20]: > 50 µM; inhibition [21]: inactive; inhibition [22]: inactive; inhibition [24]: inactive
O=c1[nH]c(=O)n([C@H]2C[C@H](O)[C@@H](CO)O2)cc1-c1cn(-c2c(F)cccc2F)nn1	1.5	36	2.9	≥ 10	≥ 50	38	31	0.51	18	1.5	inactive	6.1	inactive	inactive	inactive	inactive	inactive	inactive	inactive	29	inhibition [19]: inactive; EC50 [20]: 3.1 µM; inhibition [21]: inactive; inhibition [22]: inactive; inhibition [24]: inactive
O=c1[nH]c(=O)n([C@H]2C[C@H](O)[C@@H](CO)O2)cc1-c1cn(-c2ccc(Oc3ccccc3)cc2)nn1	0.8	31	0.5	130	≥ 43	4.3	8.6	0.28	16.4	0.45	inactive	5.7	inactive	inactive	inactive	inactive	inactive	inactive	inactive	19.4	inhibition [19]: inactive; EC50 [20]: 1.4 µM; inhibition [21]: inactive; inhibition [22]: inactive; inhibition [24]: inactive
CC(C)(C)c1ccc(-n2cc(-c3cn([C@H]4C[C@H](O)[C@@H](CO)O4)c(=O)[nH]c3=O)nn2)cc1	11	> 50	15	230	> 50	37	> 50	9	> 50	12.4	inactive	35	inactive	inactive	inactive	inactive	inactive	inactive	inactive	> 50	inhibition [19]: inactive; EC50 [20]: 7.7 µM; inhibition [21]: inactive; inhibition [22]: inactive; inhibition [24]: inactive
O=c1[nH]c(=O)n([C@H]2C[C@H](O)[C@@H](CO)O2)cc1-c1cn(-c2ccccc2)nn1	75	> 50	204	270	> 50	> 50	> 50	56	> 270	270	inactive	> 270	inactive	inactive	inactive	inactive	inactive	inactive	inactive	> 270	inhibition [19]: inactive; EC50 [20]: > 270 µM; inhibition [21]: inactive; inhibition [22]: inactive; inhibition [24]: inactive
O=c1[nH]cc(F)c(=O)[nH]1 [FLUOROURACIL]	14	–	0.56	–	–	–	–	0.57	–	–	–	–	–	–	–	–	–	–	–	–	–
O=c1[nH]c(=O)n([C@H]2C[C@H](O)[C@@H](CO)O2)cc1-c1cnnn1-c1ccc(Br)cc1	47	> 100	61	> 100	> 100	> 100	> 100	8	–	–	–	–	–	–	–	–	–	–	–	–	–
NC(=O)c1ncn([C@@H]2O[C@H](CO)[C@@H](O)[C@H]2O)n1 [RIBAVIRIN]	–	> 250	–	> 250	> 250	> 250	> 250	–	> 100	> 250	–	–	–	–	–	–	–	–	–	> 100	–
CC(C)c1ccc(-n2nncc2-c2cn([C@H]3C[C@H](O)[C@@H](CO)O3)c(=O)[nH]c2=O)cc1	> 200	> 100	> 200	> 100	> 100	> 100	> 100	> 200	–	–	–	–	–	–	–	–	–	–	–	–	–
O=c1[nH]c(=O)n([C@H]2C[C@H](O)[C@@H](CO)O2)cc1/C=C/Br [BRIVUDINE]	–	–	–	> 250	180	–	6	–	–	> 250	–	54.4	–	–	–	–	–	–	–	–	–
O=c1[nH]c(=O)n([C@H]2C[C@H](O)[C@@H](CO)O2)cc1-c1cnnn1-c1c(F)cccc1F	12	> 100	10	> 100	> 100	> 100	> 100	5	–	–	–	–	–	–	–	–	–	–	–	–	–
Nc1nc2c(ncn2COCCO)c(=O)[nH]1 [ACYCLOVIR]	–	–	–	> 50	–	> 250	10	–	–	> 130	–	16.5	–	–	–	–	–	–	–	–	–
O=c1[nH]c(=O)n([C@H]2C[C@H](O)[C@@H](CO)O2)cc1-c1cn(-c2cc(F)cc(F)c2)nn1	–	> 220	–	220	> 220	> 220	> 220	–	> 50	36	inactive	> 50	inactive	inactive	inactive	inactive	inactive	inactive	inactive	> 50	inhibition [19]: inactive; EC50 [20]: > 50 µM; inhibition [21]: inactive; inhibition [22]: inactive; inhibition [24]: inactive
